# In patent publication US6555692B1, “Preparation and use of bifunctional molecules having DNA sequence binding specificity” (California Institute of Technology, priority 1996, dated 2003):
# Legend:
# [1] = tested on: 262 bp restriction fragment (EcoRI/FspI) of pBR322; assay: DNA alkylation / cleavage reactions; type: biochemical
# Experimental: Alkylation was examined on a 262 bp restriction fragment (EcoRI/FspI) of pBR322, radiolabeled on the 3′ end (10,000 cpm/reaction). Polyamide or bromodistamycin were added at appropriate concentrations. Final reaction concentrations were 10 mM sodium phosphate (pH 7.0), 100 μM sonicated calf thymus DNA. The reactions were incubated at 37° C. for 0, 1, 5, 10, 20, and 40 hours. Following incubation, the reactions were ethanol precipitated and dissolved in 10 μl 10 mM sodium phosphate buffer and heated at 90° C. for 15 minutes. Piperidine (40 μl, 1.4 M) was added and the reaction heated again for 15 minutes at 90° C. Piperidine was lyophilized off and the reactions were resuspended in 7 μl 1× TBE/80% formamide loading buffer, denatured by heating at 85° C. for 10 minutes and placed on ice. Reactions were electrophoresed on 8% polyacrylamide gels (5% cross link, 7 M urea) in 1× TBE at 2000V. Gels were dried and exposed to a storage phosphor screen (Molecular Dynamics).
# [2] = tested on: 5′-AACCAAGTACTTGGTA-3′; assay: Association constants, recognition of 16 base pairs; type: binding; settings: Table 10, C3-OH polyamides, match site
# [3] = tested on: 5′-AACCAAGTCTTGGTA-3′; assay: Association constants, recognition of 15 base pairs; settings: Table 7, C3-OH polyamides, match site
# [4] = tested on: 5′-[…]-3′; assay: Quantitative DNase I footprinting, pJT-LTR 245 base pair fragment; type: binding, HIV-1
# [5] = tested on: 5′-TGTTAAACA-3′; assay: Quantitative DNase I footprint titration; type: binding; settings: 9 bp site
# Excerpt: To identify a flexible linker amino acid, four polyamides of the formula ImPyPy-X-PyPyPy-Dp where X=Py, G (glycine), β, or γ, respectively, were synthesized and their equilibrium association constants determined for 5′-[…]-3′ (9 base pair) sites. (Trauger, et al. J. Am. Chem. Soc., 118, 6160 (1996).)
# [6] = tested on: 5′-AAAAAGACAAAAA-3′; assay: Quantitative DNase I footprint titration; type: binding; settings: 13 bp site
# Excerpt: At least two distinct binding modes are expected to form for the ImPyPy-X-PyPyPy-Dp polyamides described above that bind in an extended conformation. These binding modes as “slipped” and “overlapped”. In the overlapped (9 base pair) binding mode, two ImPyPy-X-PyPyPy-Dp polyamides bind directly opposite one another. The “slipped” (13 base pair) binding mode integrates the 2:1 and 1:1 polyamide-DNA binding motifs at a single site. In this binding mode, the ImPyPy moieties of two ImPyPy-X-PyPyPy-Dp polyamides bind the central 5′-AGACA-3′ sequence in a 2:1 manner as in the ImPyPy homodimer, and the PyPyPy moieties of the polyamides bind to A,T flanking sequences as in the 1:1 complexes of distamycin.
# [7] = target: nine bp polyamide binding site on restriction fragment from pUC-19; assay: Pvu II endonuclease protection assay, association and dissociation rates
# Excerpt: Provided herein is an endonuclease protection assay to measure the rate of polyamide-DNA complex formation. Such an assay may comprise a labeled restriction fragment comprising a polyamide binding site that overlaps a restriction endonuclease cleavage site. Cleavage by the cognate is prevented when the overlapping polyamide binding site is occupied by the polyamide. As a control, a second labeled DNA fragment may be that contains the restriction site, but lacks the overlapping polyamide binding site. The rate of polyamide association with its target binding site may be assessed by incubating the solutions of the polyamide with the labeled target and reference fragments for a sufficient timer period. Using the experimental conditions provided herein, the reference site is nearly completely digested, but protection at the target site is observed and can be correlated with polyamide concentration and the time of equilibration. Similarly, the dissociation rate is analyzed by adding an excess of unlabeled competitor DNA to an equilibrated solution of the labeled DNA fragments and polyamide. Addition of the competitor reduces the concentration of free polyamide to zero. The rate at with polyamide dissociation occurs from the target site on the labeled fragment can be followed by the rate of loss of protection from restriction enzyme digestion as the re-equilibration time is increased.
# An engineered, radiolabeled restriction fragment from pUC-19 was prepared in which a nine bp polyamide binding site overlaps by two base pairs with the cleavage site for the restriction endonuclease Pvu II. Cleavage by Pvu II is prevented when the overlapping polyamide binding site is .occupied by the polyamide. As a control, a second radiolabeled DNA fragment was prepared which contains a Pvu II site, but lacks the overlapping polyamide binding site.
# The rate of polyamide association with its target binding site was assessed by combining solutions of the polyamide with the radiolabeled target and reference fragments and allowing them to for 5 minutes to 5 hours before initiating a treatment (1-2 minutes) with the enzyme Pvu II. Under the experimental conditions, the reference site is nearly completely digested, but protection at the target site is observed and can be correlated with polyamide concentration and the time of equilibration. Similarly, the dissociation rate is analyzed by adding an excess of unlabeled competitor DNA to an equilibrated solution of the labeled DNA fragments and polyamide. Addition of the competitor reduces the concentration of free polyamide to zero. The rate at with polyamide dissociation occurs from the target site on the labeled fragment can be followed by the rate of loss of protection from Pvu II digestion as the re-equilibration time is increased. The association profile with respect to time for the 9-ring extended hairpin polyamide ImPyPy-γ-ImPyPy-β-PyPyPy-G-Dp binding its cognate 9 base pair match site is shown in FIG. 6.
# The extended hairpin dissociation rate has been determined to be kd=3.1±0.2×10^−5 s^−1, this corresponds to a half-time of 6.2 h (10 mM Bis-Tris (pH 7.0), 50 mM NaCl, 5 mM MgCl2, 1 mM mercaptoethanol at 37° C.). Wherein half-time is defined as the time required for 50% of a population of DNA and polyamide to dissociate or associate. The association rate has been determined at ka=1.3±0.8×10^4 M^−1s^−1; this corresponds to a half-time of 3.0 h at 5.0 nM. The determined value for the equilibrium association constant (Keq=6.3±0.8×10^8 M^−1) correlates well with the kinetically determined ratio (ka/kd=4.2±2.6×10^8 M^−1).
# [8] = tested on: 5′-AAAAACACA-3′; assay: Quantitative DNase I footprint titration
# [9] = tested on: 5′-TGTTA-3′; settings: cited from earlier work
# [10] = tested on: 5′-TGTTA-3′; assay: Quantitative DNase I footprint titration, equilibrium association constant
# [11] = tested on: 282 bp EcoRI/PvuII restriction fragment from plasmid pSES9hp (5′-TGGCCA-3′, 5′-TGCGCA-3′, 5′-TGGGGA-3′ sites); assay: Affinity cleaving, identification of binding orientation; settings: 25 mM Tris-acetate, 10 mM NaCl, 100 μM/base pair calf thymus DNA, pH 7.0, 22° C.
# Experimental: Affinity cleavage assays (25 mM Tris-acetate, 10 mM NaCl, 100 μM/base pair calf thymus DNA, pH 7.0 and 22° C.) were performed in order to identify the binding orientations of the EDTA analogues of the three hairpin polyamides: ImImPyPy-γ-ImImPyPy-β-Dp-EDTA, ImPyImPy-γ-ImPyImPy-β-Dp-EDTA , and ImImImIm-γ-PyPyPyPy-β-Dp-EDTA.
# Depicted in FIG. 17 is a representative affinity cleaving experiment on a 3′-^32P-labeled 282 bp EcoRI/PvuII restriction fragment from plasmid pSES9hp. […] Lane 1, A reaction; lane 2, C reaction; lanes 3-5, 1 μM, 2 μM and 5 μM ImImPyPy-γ-ImImPyPy-β-Dp-EDTA (1-E); lanes 6-8, 1 μM, 2 μM and 5 μM ImPyImPy-γ-ImPyImPy-β-Dp-EDTA (2-E); lanes 9-11, 1 μM, 2 μM and 5 μM ImImImIm-γ-PyPyPyPy-β-Dp-EDTA (3-E); lane 12, intact DNA. All lanes contain 15 kcpm 3′-radiolabeled DNA, 25 mM Tris-acetate buffer (pH 7.0), 10 mM NaCl, and 100 μM/base pair calf thymus DNA. (Right) Affinity cleavage patterns for ImImPyPy-γ-ImImPyPy-β-Dp-EDTA and ImPyImPy-γ-ImPyImPy-β-Dp-EDTA at 1 μM concentration, and ImImImIm-γ-PyPyPyPy-β-Dp-EDTA at 5 μM concentration. Illustration of the 282 bp restriction fragment with the position of the sequence indicated. Bar heights are proportional to the […] at each band. Boxes represent equilibrium binding sites determined by the published model, and only sites that were quantitated by DNase I footprint titrations are boxed.
compound,measurement,setting,value
COc1c(O)c2c(c3cc(C(=O)N4CCc5c4c(O)c(OC)c4[nH]c(C(=O)N6C[C@H]7C[C@@]78C6=CC(=O)c6[nH]cc(C)c68)cc54)[nH]c13)CCN2C(N)=O [(+)CC-1065],DNA cleavage (alkylation),[1]; reaction time 1 hour at 37° C.,intense cleavage at 13 adenines
CC(=O)Nc1cn(C)c(C(=O)Nc2cn(C)c(C(=O)Nc3cc(C(=O)NCCCC(=O)Nc4cc(C(=O)Nc5cc(C(=O)Nc6cc(C(=O)NCCCO)n(C)c6)n(C)c5)n(C)c4)n(C)c3)n2)n1 [Ac-ImImPy-γ-PyPyPy-C3—OH],Ka 5′-AACCAAGTACTTGGTA,[2],7 × 10^6
same,Ka 5′-AACCAAGTCTTGGTA-3′,[3],7 × 10^6
CN(C)CCCNC(=O)CCNC(=O)c1cc(NC(=O)c2cc(NC(=O)CCNC(=O)c3cc(NC(=O)c4nc(NC(=O)CCNC(=O)c5cc(NC(=O)c6nc(NC(=O)CCNC(=O)c7cc(NC(=O)c8nccn8C)cn7C)cn6C)cn5C)cn4C)cn3C)cn2C)cn1C [ImPy-β-ImPy-β-ImPy-β-PyPy-β-Dp],lower affinity at other mismatch-sites on the restriction fragment,[4],10-20 fold
same,apparent monomeric association constant Ka,"[4]; 16 bp target site, pH 7.0, 24° C., values above 1-2×10^10 M^−1 are a lower limit",3.5e+10 M⁻¹
same,lower affinity at proximal two-base pair mismatch site,[4]; […],at least 35 fold
CN(C)CCCNC(=O)c1cc(NC(=O)c2cc(NC(=O)c3cc(NC(=O)CCNC(=O)c4cc(NC(=O)c5cc(NC(=O)c6nccn6C)cn5C)cn4C)cn3C)cn2C)cn1C [ImPyPy-β-PyPyPy-Dp],affinity higher than ImPyPy-Py-PyPyPy-Dp by a factor of,[5],~10
same,Ka,[5]; overlapped binding,8e+08 M⁻¹
same,Ka higher than ImPyPy-Py-PyPyPy-Dp by a factor of,[6],~85
same,association constant Ka,[6]; slipped binding,5e+09 M⁻¹
CN(C)CCCNC(=O)CNC(=O)c1cc(NC(=O)c2cc(NC(=O)c3cc(NC(=O)CCNC(=O)c4cc(NC(=O)c5cc(NC(=O)c6nc(NC(=O)CCCNC(=O)c7cc(NC(=O)c8cc(NC(=O)c9nccn9C)cn8C)cn7C)cn6C)cn5C)cn4C)cn3C)cn2C)cn1C [ImPyPy-γ-ImPyPy-β-PyPyPy-G-Dp],kinetically determined ratio ka/kd,[7],4.2±2.6×10^8 M^−1
same,dissociation rate kd,"[7]; 10 mM Bis-Tris (pH 7.0), 50 mM NaCl, 5 mM MgCl2, 1 mM mercaptoethanol at 37° C.",3.1±0.2×10^−5 s^−1
same,association rate ka,[7]; 37° C.,1.3±0.8×10^4 M^−1s^−1
same,dissociation half-time,[7]; 37° C.,6.2 h
same,equilibrium association constant Keq,[7]; 37° C.,6.3±0.8×10^8 M^−1
same,association half-time,[7]; at 5.0 nM,3.0 h
same,increase in affinity relative to six-ring hairpin ImPyPy-γ-ImPyPy-β-Dp,[8],~400 fold
same,Kd,"[8]; read-out: concentration at which the target site is bound, 9-bp target site",0.05 nM
"CN(C)CCCNC(=O)c1cc(NC(=O)c2cc(NC(=O)c3cc(NC(=O)CCCNC(=O)c4cc(NC(=O)c5cc(NC(=O)c6nccn6C)cn5C)cn4C)cn3C)cn2C)cn1C [ImPyPy-γ-PyPyPy-Dp, reference compound]",equilibrium association constant Ka,"[9]; 5′-TGTTA-3′ target site, prior art",8e+07 M⁻¹
same,increase in Ka relative to the unlinked three-ring polyamide pair ImPyPy and PyPyPy,[9]; 5′-TGTTA-3′,300 fold
same,apparent first order association constant Ka,[10]; 5′-TGTTA-3′ match site,8e+07 M⁻¹
same,"specificity, match site relative to single base pair mismatch site",[10]; 5′-TGTTA-3′ match vs 5′-TGACA-3′ mismatch,24 fold
Cn1cc(NC(=O)c2cc(NC(=O)c3cc(NC(=O)CCCNC(=O)c4cc(NC(=O)c5nc(NC(=O)c6nc(NC(=O)CCCCCNC(=O)c7cc(NC(=O)c8cc(NC(=O)c9cc(NC(=O)c%10nccn%10C)cn9C)cn8C)cn7C)cn6C)cn5C)cn4C)cn3C)cn2C)cc1C(=O)NCCCO [ImPyPyPy-C6-ImImPy-γ-PyPyPy-C3—OH],Ka 5′-AACCAAGTACTTGGTA,[2],< 1e+08 M⁻¹
Cn1cc(NC(=O)c2cc(NC(=O)c3cc(NC(=O)CBr)cn3C)cn2C)cc1C(=O)NCCC(=N)N [N-Bromoacetyldistamycin],DNA cleavage (alkylation),[1]; after 10 hours at 37°,"comparable amount of cleavage to (+) CC-1065 at 1 hour, but at only one adenine"
same,DNA cleavage (alkylation),[1]; reaction time 1 hour at 37° C.,almost no visible cleavage
ImImPyPy-γ-ImImPyPy-β-Dp-EDTA,binding orientation by affinity cleaving,[11],two equivalent orientations
ImPyImPy-γ-ImPyImPy-β-Dp-EDTA,binding orientation by affinity cleaving,[11],two equivalent orientations
